From ChEMBL document CHEMBL4507268 (2021)

Tests used:
Settings in all cases: Compound concentration 1.0 uM
[1] = molecular target: Bone morphogenetic protein receptor type-1B (Homo sapiens) (UniProt O00238)
[2] = molecular target: Serine/threonine-protein kinase 35 (Homo sapiens) (UniProt Q8TDR2)
[3] = molecular target: Mast/stem cell growth factor receptor Kit (Homo sapiens) (UniProt P10721)
[4] = molecular target: T1, Discoidin domain-containing receptor 2 (Homo sapiens) (UniProt Q16832)
T1 sequence (whole entry): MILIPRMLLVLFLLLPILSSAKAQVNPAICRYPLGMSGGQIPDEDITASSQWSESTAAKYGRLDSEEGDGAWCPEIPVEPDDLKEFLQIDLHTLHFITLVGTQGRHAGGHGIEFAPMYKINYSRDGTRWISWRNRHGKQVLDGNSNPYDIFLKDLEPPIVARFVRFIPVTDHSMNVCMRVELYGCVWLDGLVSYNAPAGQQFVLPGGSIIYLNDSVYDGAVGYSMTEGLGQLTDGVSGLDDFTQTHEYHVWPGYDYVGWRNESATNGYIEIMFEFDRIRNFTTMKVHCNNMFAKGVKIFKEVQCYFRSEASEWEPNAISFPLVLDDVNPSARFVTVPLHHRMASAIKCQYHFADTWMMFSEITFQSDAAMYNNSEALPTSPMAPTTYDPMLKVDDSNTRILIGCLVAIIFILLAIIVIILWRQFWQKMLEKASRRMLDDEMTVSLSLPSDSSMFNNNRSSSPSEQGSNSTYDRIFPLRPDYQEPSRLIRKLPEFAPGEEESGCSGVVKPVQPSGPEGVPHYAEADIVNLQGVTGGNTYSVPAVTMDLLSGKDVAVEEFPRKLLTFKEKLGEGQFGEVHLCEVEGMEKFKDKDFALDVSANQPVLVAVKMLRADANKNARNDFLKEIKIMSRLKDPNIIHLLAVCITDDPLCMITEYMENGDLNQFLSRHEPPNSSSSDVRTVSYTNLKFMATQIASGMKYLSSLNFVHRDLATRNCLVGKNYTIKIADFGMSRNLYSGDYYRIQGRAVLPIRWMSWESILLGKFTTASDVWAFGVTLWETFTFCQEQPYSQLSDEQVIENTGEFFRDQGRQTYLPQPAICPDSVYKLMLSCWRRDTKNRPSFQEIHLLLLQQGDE

[5] = molecular target: Dual specificity tyrosine-phosphorylation-regulated kinase 3 (Homo sapiens) (UniProt O43781)
[6] = molecular target: Epidermal growth factor receptor (Homo sapiens) (UniProt P00533)
[7] = molecular target: T2, Ephrin type-B receptor 3 (Homo sapiens) (UniProt P54753)
T2 sequence (whole entry): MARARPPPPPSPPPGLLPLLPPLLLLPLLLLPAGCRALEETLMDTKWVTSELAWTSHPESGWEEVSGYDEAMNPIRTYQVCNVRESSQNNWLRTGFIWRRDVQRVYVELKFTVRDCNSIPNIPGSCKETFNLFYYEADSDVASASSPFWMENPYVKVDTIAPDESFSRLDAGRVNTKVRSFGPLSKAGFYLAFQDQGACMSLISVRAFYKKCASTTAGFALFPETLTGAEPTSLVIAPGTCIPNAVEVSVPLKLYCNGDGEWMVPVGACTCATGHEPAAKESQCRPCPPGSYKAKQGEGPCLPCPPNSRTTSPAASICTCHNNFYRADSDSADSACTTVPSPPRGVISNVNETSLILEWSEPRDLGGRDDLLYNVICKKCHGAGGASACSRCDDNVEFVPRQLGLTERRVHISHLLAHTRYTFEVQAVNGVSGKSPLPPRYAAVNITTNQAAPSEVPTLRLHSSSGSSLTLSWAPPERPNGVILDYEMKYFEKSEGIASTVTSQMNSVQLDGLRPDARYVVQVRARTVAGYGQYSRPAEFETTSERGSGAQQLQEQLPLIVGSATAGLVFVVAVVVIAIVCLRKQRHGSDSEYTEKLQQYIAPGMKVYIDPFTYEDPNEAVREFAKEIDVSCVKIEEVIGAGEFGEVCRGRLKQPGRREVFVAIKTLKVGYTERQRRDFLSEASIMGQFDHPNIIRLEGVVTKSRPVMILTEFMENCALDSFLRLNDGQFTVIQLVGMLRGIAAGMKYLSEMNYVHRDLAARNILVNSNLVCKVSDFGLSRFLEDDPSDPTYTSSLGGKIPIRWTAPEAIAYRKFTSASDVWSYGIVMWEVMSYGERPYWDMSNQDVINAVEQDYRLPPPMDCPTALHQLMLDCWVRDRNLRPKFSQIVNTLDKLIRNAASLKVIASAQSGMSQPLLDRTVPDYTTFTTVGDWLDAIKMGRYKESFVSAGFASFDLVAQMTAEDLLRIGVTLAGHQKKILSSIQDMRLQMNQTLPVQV

[8] = molecular target: Receptor-type tyrosine-protein kinase FLT3 (Homo sapiens) (UniProt P36888)
[9] = molecular target: T3, Tyrosine-protein kinase ITK/TSK (Homo sapiens) (UniProt Q08881)
T3 sequence (whole entry): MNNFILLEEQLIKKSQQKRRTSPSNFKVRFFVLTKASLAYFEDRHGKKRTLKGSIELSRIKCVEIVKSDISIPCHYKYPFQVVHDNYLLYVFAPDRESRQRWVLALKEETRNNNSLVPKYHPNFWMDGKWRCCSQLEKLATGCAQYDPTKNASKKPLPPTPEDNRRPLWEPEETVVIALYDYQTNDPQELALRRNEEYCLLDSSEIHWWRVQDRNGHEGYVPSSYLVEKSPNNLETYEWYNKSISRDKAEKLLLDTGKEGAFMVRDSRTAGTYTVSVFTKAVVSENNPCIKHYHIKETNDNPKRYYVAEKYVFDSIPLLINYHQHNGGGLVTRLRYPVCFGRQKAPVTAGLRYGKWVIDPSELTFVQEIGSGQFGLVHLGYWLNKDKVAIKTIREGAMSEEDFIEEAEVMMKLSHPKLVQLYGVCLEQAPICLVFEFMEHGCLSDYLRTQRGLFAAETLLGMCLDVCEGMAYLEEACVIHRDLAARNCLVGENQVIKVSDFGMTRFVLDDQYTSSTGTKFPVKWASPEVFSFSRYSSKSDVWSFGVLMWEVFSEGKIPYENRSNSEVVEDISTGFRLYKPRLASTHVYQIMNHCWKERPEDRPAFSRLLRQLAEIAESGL

[10] = molecular target: Tyrosine-protein kinase JAK1 (Homo sapiens) (UniProt P23458)
[11] = molecular target: Mitogen-activated protein kinase kinase kinase kinase 4 (Homo sapiens) (UniProt O95819)
[12] = molecular target: PI3K p110 beta/p85 alpha (Homo sapiens) (UniProt P27986+P42338)

Measured: % residual kinase activity

Sequence of Tyrosine-protein kinase JAK1 (Homo sapiens) (P23458 whole entry): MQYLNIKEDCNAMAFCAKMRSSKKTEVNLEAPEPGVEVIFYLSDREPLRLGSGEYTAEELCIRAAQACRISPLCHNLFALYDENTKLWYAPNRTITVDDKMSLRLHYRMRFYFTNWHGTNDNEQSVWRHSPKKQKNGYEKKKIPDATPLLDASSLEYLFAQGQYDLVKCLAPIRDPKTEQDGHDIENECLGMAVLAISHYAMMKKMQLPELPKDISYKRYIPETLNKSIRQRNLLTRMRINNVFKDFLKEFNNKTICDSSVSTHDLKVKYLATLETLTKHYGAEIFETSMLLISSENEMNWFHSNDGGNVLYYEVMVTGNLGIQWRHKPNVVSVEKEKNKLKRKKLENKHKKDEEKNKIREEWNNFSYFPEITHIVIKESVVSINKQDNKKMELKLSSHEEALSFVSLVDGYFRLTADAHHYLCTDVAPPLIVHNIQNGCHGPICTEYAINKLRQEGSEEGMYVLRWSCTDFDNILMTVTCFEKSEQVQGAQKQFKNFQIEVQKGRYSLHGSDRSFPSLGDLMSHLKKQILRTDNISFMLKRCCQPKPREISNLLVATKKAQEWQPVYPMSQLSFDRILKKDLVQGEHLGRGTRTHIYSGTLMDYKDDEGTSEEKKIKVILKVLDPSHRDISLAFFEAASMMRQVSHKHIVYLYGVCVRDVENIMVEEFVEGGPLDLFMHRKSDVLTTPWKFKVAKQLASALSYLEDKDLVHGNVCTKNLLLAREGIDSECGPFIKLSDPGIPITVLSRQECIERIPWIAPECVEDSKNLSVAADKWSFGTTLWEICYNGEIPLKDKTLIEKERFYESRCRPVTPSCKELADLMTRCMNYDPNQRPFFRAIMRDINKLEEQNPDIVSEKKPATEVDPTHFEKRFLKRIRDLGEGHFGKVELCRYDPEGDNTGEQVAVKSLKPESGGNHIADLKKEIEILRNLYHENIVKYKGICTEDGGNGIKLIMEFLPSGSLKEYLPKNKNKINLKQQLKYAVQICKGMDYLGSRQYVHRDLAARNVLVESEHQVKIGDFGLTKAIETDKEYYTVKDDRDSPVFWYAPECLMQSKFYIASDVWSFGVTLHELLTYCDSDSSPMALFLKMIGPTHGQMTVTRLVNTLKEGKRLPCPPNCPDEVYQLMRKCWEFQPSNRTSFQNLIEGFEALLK
Sequence of Mast/stem cell growth factor receptor Kit (Homo sapiens) (P10721 whole entry, the tested form may be a part): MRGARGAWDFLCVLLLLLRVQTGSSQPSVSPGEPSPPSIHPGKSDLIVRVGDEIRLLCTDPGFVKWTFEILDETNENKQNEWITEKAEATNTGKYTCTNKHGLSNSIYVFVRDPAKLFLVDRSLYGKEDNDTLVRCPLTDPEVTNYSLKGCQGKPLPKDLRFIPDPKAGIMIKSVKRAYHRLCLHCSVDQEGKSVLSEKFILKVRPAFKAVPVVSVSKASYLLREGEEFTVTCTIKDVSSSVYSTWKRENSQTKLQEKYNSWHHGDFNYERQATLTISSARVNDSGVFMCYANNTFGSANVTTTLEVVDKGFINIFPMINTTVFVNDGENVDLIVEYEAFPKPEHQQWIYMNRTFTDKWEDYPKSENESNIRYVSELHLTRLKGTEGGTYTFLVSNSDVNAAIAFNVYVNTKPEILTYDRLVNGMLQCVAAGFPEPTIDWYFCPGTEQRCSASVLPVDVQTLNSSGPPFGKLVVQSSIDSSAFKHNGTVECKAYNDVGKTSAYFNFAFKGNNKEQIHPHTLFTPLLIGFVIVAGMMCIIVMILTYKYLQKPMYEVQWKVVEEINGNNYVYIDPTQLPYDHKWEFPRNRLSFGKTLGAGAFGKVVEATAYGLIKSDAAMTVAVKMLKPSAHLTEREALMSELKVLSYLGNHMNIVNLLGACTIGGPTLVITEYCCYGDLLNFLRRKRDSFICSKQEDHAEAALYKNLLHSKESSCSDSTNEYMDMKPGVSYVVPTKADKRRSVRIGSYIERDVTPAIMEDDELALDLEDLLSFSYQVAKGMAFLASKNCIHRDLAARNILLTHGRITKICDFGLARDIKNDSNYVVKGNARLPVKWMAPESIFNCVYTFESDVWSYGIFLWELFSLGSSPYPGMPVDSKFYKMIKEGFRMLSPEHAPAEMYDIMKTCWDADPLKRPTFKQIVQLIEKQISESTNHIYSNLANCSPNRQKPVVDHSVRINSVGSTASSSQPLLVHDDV
Sequence of Receptor-type tyrosine-protein kinase FLT3 (Homo sapiens) (P36888 whole entry): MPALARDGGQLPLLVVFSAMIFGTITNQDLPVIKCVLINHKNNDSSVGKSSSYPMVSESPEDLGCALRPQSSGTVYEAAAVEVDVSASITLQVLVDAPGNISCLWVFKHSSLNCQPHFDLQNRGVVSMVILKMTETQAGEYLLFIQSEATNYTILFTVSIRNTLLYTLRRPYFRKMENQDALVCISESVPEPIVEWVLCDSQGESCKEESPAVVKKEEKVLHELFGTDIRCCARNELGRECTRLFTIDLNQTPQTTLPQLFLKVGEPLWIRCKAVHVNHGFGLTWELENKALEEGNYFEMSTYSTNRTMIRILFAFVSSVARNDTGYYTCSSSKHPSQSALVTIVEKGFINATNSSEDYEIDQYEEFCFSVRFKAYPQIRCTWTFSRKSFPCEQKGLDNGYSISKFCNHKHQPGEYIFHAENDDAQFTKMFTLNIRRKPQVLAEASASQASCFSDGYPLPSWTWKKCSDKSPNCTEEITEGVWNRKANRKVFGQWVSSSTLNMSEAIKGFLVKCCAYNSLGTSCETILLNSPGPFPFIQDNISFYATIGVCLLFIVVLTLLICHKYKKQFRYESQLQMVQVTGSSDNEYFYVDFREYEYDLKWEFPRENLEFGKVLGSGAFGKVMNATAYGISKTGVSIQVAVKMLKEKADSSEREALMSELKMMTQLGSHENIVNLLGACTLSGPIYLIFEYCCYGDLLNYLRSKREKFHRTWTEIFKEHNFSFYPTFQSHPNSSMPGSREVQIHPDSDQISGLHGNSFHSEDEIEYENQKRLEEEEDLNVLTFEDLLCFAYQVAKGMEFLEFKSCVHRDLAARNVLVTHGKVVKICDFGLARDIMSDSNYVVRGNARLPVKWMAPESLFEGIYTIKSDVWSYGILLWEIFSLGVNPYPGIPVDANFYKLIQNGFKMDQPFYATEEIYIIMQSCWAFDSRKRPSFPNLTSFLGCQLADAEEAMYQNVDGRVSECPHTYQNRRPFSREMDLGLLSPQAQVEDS
Sequence of Serine/threonine-protein kinase 35 (Homo sapiens) (Q8TDR2 whole entry): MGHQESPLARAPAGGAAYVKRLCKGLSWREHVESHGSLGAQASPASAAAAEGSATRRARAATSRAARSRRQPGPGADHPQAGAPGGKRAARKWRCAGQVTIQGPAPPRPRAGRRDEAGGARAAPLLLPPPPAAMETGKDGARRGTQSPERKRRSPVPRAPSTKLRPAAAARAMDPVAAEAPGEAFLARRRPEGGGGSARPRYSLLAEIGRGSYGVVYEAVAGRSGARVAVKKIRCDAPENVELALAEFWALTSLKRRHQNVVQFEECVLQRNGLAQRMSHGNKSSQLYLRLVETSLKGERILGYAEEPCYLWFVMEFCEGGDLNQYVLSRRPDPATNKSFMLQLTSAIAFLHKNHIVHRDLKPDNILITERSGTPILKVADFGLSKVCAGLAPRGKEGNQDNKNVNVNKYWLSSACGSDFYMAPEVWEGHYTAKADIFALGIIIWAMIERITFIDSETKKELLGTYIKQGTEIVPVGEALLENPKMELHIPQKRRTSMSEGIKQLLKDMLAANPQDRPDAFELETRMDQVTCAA
Sequence of Dual specificity tyrosine-phosphorylation-regulated kinase 3 (Homo sapiens) (O43781 whole entry): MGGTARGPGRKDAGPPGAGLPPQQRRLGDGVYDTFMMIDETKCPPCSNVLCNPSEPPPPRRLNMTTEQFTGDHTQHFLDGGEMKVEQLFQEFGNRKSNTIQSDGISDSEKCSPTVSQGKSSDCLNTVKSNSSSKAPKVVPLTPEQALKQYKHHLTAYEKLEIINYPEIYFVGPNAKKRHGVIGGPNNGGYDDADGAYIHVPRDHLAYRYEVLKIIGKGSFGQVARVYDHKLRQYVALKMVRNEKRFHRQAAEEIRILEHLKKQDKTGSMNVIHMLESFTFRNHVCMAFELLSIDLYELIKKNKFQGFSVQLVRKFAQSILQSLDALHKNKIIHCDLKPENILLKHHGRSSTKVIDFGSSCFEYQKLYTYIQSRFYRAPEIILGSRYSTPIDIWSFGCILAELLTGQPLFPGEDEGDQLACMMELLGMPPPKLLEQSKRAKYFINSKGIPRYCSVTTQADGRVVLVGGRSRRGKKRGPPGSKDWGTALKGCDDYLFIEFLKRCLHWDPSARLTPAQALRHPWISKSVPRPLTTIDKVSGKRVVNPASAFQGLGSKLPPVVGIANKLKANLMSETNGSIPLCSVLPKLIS
Sequence of Bone morphogenetic protein receptor type-1B (Homo sapiens) (O00238 whole entry): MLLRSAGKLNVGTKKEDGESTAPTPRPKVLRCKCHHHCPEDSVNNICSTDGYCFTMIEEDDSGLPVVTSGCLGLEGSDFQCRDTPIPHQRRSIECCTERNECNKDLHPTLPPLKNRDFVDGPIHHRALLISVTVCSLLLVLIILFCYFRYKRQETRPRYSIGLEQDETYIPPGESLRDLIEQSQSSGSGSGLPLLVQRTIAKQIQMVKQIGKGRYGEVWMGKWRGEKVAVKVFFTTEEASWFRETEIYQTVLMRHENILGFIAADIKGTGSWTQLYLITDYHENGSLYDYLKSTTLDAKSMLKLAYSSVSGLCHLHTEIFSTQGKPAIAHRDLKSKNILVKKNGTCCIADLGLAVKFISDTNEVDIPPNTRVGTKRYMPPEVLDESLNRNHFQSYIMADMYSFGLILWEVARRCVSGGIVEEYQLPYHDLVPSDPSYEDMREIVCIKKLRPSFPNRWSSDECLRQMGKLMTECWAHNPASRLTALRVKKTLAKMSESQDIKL

CN1CCN(c2cnc3c(C4CCN(C(=O)c5ccc(OC(F)(F)F)cc5N)CC4)ncnc3c2)CC1 [BAY-885]
inactive: [1] 102% | [2] 116% | [3] 104% | [4] 104% | [5] 103% | [6] 105% | [7] 42% | [8] 100% | [9] 105% | [10] 104% | [11] 99% | [12] 98%
